Measured values as given in BindingDB's records for doi:10.1021/acs.jmedchem.9b00061 (Ajou University, 2019).
Where a SMILES comes first, the peptide text is derived from it. Bridges are numbered along the chain shown (N, C = ends).

Target: Toll-like receptor 4 (Homo sapiens, UniProt O00206)
Experiment: Binding affinity to recombinant human TLR4 assessed as dissociation constant up to 200 uM by surface plasmon resonance analysis

Sequence of Toll-like receptor 4 (O00206 whole entry): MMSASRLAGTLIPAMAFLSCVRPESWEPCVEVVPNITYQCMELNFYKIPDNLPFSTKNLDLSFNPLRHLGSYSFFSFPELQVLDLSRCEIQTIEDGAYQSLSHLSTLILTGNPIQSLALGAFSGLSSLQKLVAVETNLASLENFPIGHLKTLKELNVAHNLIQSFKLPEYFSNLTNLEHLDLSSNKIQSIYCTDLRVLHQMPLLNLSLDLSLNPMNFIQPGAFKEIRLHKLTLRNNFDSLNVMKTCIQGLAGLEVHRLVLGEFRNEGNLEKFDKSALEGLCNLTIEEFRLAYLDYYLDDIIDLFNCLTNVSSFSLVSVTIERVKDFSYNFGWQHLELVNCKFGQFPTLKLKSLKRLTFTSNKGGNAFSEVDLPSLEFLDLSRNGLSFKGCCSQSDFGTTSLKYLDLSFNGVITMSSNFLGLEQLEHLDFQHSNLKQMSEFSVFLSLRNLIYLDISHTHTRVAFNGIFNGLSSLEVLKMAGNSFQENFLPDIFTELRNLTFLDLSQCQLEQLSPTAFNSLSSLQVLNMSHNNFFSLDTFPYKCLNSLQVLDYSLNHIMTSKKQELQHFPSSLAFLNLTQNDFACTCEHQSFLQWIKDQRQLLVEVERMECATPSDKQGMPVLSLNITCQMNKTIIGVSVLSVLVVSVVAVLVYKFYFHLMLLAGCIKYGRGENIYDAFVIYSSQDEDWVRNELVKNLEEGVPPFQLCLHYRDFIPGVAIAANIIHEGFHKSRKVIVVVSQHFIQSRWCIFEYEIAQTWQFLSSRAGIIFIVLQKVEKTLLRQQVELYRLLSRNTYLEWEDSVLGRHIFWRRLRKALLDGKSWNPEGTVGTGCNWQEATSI

Row | Kd | Molecule
1 | 1.4 nM | CC[C@H](C)[C@@H]1NC(=O)[C@H](Cc2c[nH]c3ccccc23)NC(=O)[C@H](Cc2c[nH]c3ccccc23)NC(=O)[C@@H](NC(=O)[C@H](CO)NC(=O)[C@H](Cc2ccccc2)NC(=O)[C@@H](NC(=O)CNC(=O)[C@@H](N)CC(C)C)C(C)C)CC(=O)NCCCC[C@@H](C(=O)N[C@@H](CC(C)C)C(=O)N[C@H](C(=O)O)C(C)C)NC1=O (H-LGVFSDWWIKLV-OH; lactam 6-10)
2 | 1.1 nM | H-LGVFSSWWIKLV-OH
